Source: ChEMBL document CHEMBL5096241, “Discovery of 3-Aminopyrazole Derivatives as New Potent and Orally Bioavailable AXL Inhibitors” (J Med Chem, 2022)

What was measured:
[1] = target: T1, Tyrosine-protein kinase receptor UFO (Homo sapiens, UniProt P30530); test: Inhibition of recombinant AXL (unknown origin) using poly (Glu,Tyr) 4:1 as substrate incubated for 60 mins in presence of ATP by ELISA
T1 sequence (P30530 whole entry): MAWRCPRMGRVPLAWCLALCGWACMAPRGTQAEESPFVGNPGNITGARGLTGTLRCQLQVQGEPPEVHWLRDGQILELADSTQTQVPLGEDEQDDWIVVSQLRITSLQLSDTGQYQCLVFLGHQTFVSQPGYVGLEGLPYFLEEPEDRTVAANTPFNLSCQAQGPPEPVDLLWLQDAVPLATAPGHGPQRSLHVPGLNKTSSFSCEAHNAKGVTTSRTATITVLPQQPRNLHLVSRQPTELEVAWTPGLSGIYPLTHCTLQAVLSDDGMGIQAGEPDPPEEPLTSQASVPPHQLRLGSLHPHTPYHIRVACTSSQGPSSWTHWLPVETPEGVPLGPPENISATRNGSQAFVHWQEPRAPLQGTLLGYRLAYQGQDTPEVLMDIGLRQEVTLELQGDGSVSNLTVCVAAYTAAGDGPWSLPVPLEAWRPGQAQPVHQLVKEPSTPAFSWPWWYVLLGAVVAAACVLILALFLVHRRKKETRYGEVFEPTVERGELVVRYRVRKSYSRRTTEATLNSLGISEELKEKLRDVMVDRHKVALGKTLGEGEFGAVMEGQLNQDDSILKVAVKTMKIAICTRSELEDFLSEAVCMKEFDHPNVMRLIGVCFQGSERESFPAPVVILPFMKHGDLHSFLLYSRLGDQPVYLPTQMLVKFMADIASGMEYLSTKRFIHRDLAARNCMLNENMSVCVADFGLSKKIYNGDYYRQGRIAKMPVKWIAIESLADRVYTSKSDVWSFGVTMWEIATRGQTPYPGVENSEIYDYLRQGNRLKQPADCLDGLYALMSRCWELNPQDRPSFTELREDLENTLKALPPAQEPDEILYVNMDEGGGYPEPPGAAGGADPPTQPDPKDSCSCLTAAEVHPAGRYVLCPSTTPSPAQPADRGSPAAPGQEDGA

[2] = test system: BaF3; test: Antiproliferative activity against mouse BaF3 cells transfected with TEL-AXL assessed as inhibition of cell growth incubated for 72 hrs; type: functional, cell-based; details: BaF3, 72 h

Row | Structure (SMILES) | IC50 [1] [nM] | IC50 [2] [nM]
1 | COc1cc2nccc(Oc3ccc(Nc4nn(C)cc4C(=O)NC4CCC(F)(F)CC4)cc3F)c2cc1OC | 65.1 | 
2 | COc1cc2c(Oc3ccc(Nc4nn(C)cc4C(=O)NC4CCCCC4)cc3F)ccnc2cc1OCCCN(C)C | 3.2 | 11.6
3 | CNC(=O)c1cn(C)nc1Nc1ccc(Oc2ccnc3cc(OC)c(OC)cc23)c(F)c1 | > 1000 | 
4 | COc1cc2nccc(Oc3ccc(Nc4nn(C)cc4C(=O)NC(C)(C)C)cc3F)c2cc1OC | 142 | 
5 | CCNC(=O)c1cn(C)nc1Nc1ccc(Oc2ccnc3cc(OC)c(OC)cc23)c(F)c1 | 238 | 
6 | COc1cc2nccc(Oc3ccc(Nc4nn(C)cc4C(=O)NC4CCCCC4)cc3OC)c2cc1OC | 40.4 | 
7 | COc1cc2nccc(Oc3ccc(Nc4nn(C)cc4C(=O)Nc4ccc(F)cc4)cc3F)c2cc1OC | 40.1 | 
8 | COc1cc2nccc(Oc3ccc(Nc4nn(C)cc4C(=O)NC4C5CC6CC(C5)CC4C6)cc3F)c2cc1OC (stereo not given) | 13.2 | 
9 | COc1cc2nccc(Oc3ccc(Nc4nn(C)cc4C(=O)Nc4ccc(C(C)C)cc4)cc3F)c2cc1OC | > 1000 | 
10 | COc1cc2nccc(Oc3ccc(Nc4nn(C)cc4C(=O)NC4CCCC4)cc3F)c2cc1OC | 27.4 | 
11 | COc1cc2nccc(Oc3ccc(Nc4nn(C)cc4C(=O)Nc4cccc(F)c4)cc3F)c2cc1OC | 265 | 
12 | COc1cc2nccc(Oc3ccc(Nc4nn(C)cc4C(=O)NC4CCCCC4)cc3F)c2cc1OC | 11.4 | 
13 | COc1cc2nccc(Oc3ccc(Nc4nn(C)cc4C(=O)Nc4ccc(OC(F)F)cc4)cc3F)c2cc1OC | 64.4 | 
14 | COc1cc2nccc(Oc3ccc(Nc4nn(C)cc4C(=O)NC4CC4)cc3F)c2cc1OC | 586 | 
15 | COc1cc2nccc(Oc3ccc(Nc4nn(C)cc4C(=O)N4CCCCC4)cc3F)c2cc1OC | > 1000 | 
16 | COCCCOc1cc2nccc(Oc3ccc(Nc4nn(C)cc4C(=O)NC4CCCCC4)cc3F)c2cc1OC | 8.6 | 
17 | COc1cc2nccc(Oc3ccc(Nc4nn(C)cc4C(=O)NC4CCCCC4)cc3)c2cc1OC | 35 | 
18 | Nc1nc(Nc2ccc3c(c2)CCC(N2CCCC2)CC3)nn1-c1cc2c(nn1)-c1ccccc1CCC2 (single isomer, unassigned) [BEMCENTINIB] |  | 98.8
19 | COc1cc2c(Oc3ccc(Nc4nn(C)cc4C(=O)NC4CCCCC4)cc3F)ccnc2cc1OCCCN1CCN(C)CC1 | 2.9 | 9
20 | COc1cc2nccc(Oc3ccc(Nc4nn(C)cc4C(=O)NC4CCCCC4)cc3C)c2cc1OC | 40.4 | 
21 | COc1cc2c(Oc3ccc(Nc4nn(C)cc4C(=O)NC4CCCCC4)cc3F)ccnc2cc1OCCCN1CCCCC1 | 5.6 | 
22 | COc1ccc(NC(=O)c2cn(C)nc2Nc2ccc(Oc3ccnc4cc(OC)c(OC)cc34)c(F)c2)cc1 | 86.7 | 
23 | COc1cc2nccc(Oc3ccc(Nc4nn(C)cc4C(=O)Nc4ccccc4)cc3F)c2cc1OC | 25.4 | 
24 | COc1cc2nccc(Oc3ccc(Nc4nn(C)cc4C(=O)Nc4ccc(C)cc4)cc3F)c2cc1OC | 23.1 | 
25 | COc1cc2nccc(Oc3ccc(Nc4nn(C)cc4C(=O)NC4CCCCCCC4)cc3F)c2cc1OC | 12.5 | 
26 | COc1cc2nccc(Oc3ccc(Nc4nn(C)cc4C(=O)Nc4ccc(OC(F)(F)F)cc4)cc3F)c2cc1OC | > 1000 | 
27 | COCCOc1cc2nccc(Oc3ccc(Nc4nn(C)cc4C(=O)NC4CCCCC4)cc3F)c2cc1OC | 7.8 | 
28 | COc1cc2nccc(Oc3ccc(Nc4nn(C)cc4C(=O)NC4CCOCC4)cc3F)c2cc1OC | 120 | 
